Measurements published in patent EP4162932A1, “ANTIVIRAL HOP CONSTITUENTS” (HHV Hallertauer Hopfenveredelungsgesellschaft mbH, priority 2021, dated 2023).

How the values were obtained:
icSARS-CoV-2-mNG = assay: microbe, parasite or virus in culture; assay type: cell-based, SARS-CoV-2; conditions: Severe acute respiratory syndrome coronavirus 2, Caco-2, 48 h; read-out: half maximal inhibitory concentration (IC50) on virus replication
SARS-CoV-2 PLpro = SARS-CoV-2 PLpro (Severe acute respiratory syndrome coronavirus 2, UniProt P0DTD1); assay: PLpro kinetic inhibition assay, cleavage of AMC peptide mimicking the C-terminus of human ISG15; assay type: biochemical
in vitro = conditions: human, Caco-2

Row | Compound | IC50 (icSARS-CoV-2-mNG) | IC50 (SARS-CoV-2 PLpro) | CC50 (in vitro)
1 | CC(C)=CCc1c(O)cc(O)c2c1O[C@H](c1ccc(O)cc1)CC2=O [8-PN, 8-prenylnaringenin] | 23 µM | 119 ± 13 µM | 54.9 µM
2 | COc1cc(O)c(CC=C(C)C)c(O)c1C(=O)/C=C/c1ccc(O)cc1 [XN, xanthohumol] | 3.28 µM |  | 12.3 µM
3 | COc1cc(O)c(CC=C(C)C)c2c1C(=O)CC(c1ccc(O)cc1)O2 (centres unmarked) [IX, isoxanthohumol] | 20.1 µM | 59 ± 15 µM | 19.5 µM
4 | CC(C)=CCc1c(O)cc2c(c1O)C(=O)C[C@@H](c1ccc(O)cc1)O2 [6-PN, 6-prenylnaringenin] | 7.26 µM | 131 ± 10 µM | 22.6 µM
